Common to all, as to assay type: in vitro ADME
One experiment has as its target T1, hOAT3 (Homo sapiens, UniProt Q8TCC7).
T1 sequence (Q8TCC7 1-542): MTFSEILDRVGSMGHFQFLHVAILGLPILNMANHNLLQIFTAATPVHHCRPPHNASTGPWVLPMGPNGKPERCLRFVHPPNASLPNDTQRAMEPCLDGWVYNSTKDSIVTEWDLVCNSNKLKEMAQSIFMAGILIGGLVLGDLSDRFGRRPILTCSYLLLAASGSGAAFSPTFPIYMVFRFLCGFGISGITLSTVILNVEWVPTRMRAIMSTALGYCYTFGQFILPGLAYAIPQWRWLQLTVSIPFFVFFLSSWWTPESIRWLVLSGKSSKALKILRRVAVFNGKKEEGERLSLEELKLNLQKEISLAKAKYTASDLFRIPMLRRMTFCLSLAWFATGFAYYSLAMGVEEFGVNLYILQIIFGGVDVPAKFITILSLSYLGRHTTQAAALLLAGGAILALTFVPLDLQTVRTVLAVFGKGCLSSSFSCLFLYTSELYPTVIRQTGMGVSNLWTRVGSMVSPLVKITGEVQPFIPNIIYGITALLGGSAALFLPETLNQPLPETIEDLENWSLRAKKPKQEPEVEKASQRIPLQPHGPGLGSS
Description: Substrates uptake assay, S2-OAT3 cells (3H-ES). The following applies: 3H-ES 0.05 µM, 2 min.

The target of another experiment is T2, CYP3A4 (Homo sapiens, UniProt P08684).
T2 construct: tissue Corning 452117; host or cells: human liver microsomes
Description: CYP450 inhibition assay in human liver microsomes, CYP3A4 (midazolam and testosterone). How it is done: (§1) To evaluate the reliability and reproducibility of the CYP450 inhibition assay, we measured the inhibitory effects of selected positive control inhibitors of each CYP450 enzyme in human liver microsomes (HLM, Table 1, Figure 2). The potency of inhibition was estimated by observing the alteration in concentration of metabolites of CYP450 substrates (Table 1).
(§2) Reagents preparation. […] The stock solution of PDQ (10 mM) was prepared with methanol and further diluted to the range of 3 µM to 3 mM with methanol to ensure that the solvent of different PDQ samples contained the same amount (1%) of methanol.
(§3) The stock solutions of the positive control inhibitors and the probe substrates of CYP450 enzymes were prepared in methanol.
(§4) CYP450 inhibition assay. […] The assay was conducted in polypropylene 96-well plates (2.2 mL/well, Apricot Designs Inc., Covina, CA, USA).
The total volume of the reaction is 200 μL. The HLM mixtures (102 μL) containing individual probe substrates (Table 3), KH2PO4 buffer (100 mM, pH 7.4), and either PDQ or the positive control inhibitors (Table 3) were incubated for 10 min at 37 °C in a shaking incubator. Reactions were initiated by adding 98 μL NADPH (final concentration is 1.3 mM NADPH, 3 mM MgCl2 in 100 mM KH2PO4 buffer). The HLM reaction mixtures were shaken at 37 °C for various times (Table 4). The reaction time of CYP3A4 (midazolam), CYP2C19 and CYP2D6 were 3, 20 and 20 min, respectively, while the reactions of other CYP enzymes were terminated after 10 min. The reactions were quenched by adding 200 μL acetonitrile containing 3% formic acid and specific internal standards (Table 4). After shaking at 1000 rpm for 10 min, the reaction mixtures were centrifuged at 4000 rpm for 20 min. Supernatants were diluted with ultrapure water (Table 4) and shaken for 10 min at 1000 rpm. […] The substrates and analytes were analyzed by LC-MS/MS (API4000, Applied Biosystems, Singapore; HPLC, Shimadzu, Japan). […]
(§5) Data analysis. […] The IC50 was determined by fitting the dependence of the relative remaining activity (y = Vi/V0) to the following three-parameter equation (Equation (1)). […]

Another experiment deals with T3, CYP2C8 (Homo sapiens, UniProt P10632).
T3 sequence (P10632 1-490): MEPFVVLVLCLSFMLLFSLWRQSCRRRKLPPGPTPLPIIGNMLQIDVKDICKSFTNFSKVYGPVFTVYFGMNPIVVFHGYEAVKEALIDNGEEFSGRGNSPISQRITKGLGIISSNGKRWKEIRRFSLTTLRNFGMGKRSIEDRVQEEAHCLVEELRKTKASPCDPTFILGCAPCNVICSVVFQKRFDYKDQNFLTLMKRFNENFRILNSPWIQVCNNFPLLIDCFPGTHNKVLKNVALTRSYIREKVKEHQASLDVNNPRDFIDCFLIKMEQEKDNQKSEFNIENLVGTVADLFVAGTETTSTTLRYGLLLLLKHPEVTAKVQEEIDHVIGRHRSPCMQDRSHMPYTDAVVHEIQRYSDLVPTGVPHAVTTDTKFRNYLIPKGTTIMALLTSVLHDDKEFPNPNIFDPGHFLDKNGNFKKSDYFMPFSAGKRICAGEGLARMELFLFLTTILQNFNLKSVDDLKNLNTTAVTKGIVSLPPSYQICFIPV
Put plainly: CYP450 inhibition assay in human liver microsomes, CYP2C8. The following applies: HLM 0.1 mg/mL; probe amodiaquine 2 µM; 10 min. How it is done:
as §1, §2, §3, §4
The total volume of the reaction is 200 μL. […] The substrates and analytes were analyzed by LC-MS/MS (API4000, Applied Biosystems, Singapore; HPLC, Shimadzu, Japan). […]
as §5

Read-outs that look alike come from different tables or passages of the source.

T2 sequence (P08684 whole entry): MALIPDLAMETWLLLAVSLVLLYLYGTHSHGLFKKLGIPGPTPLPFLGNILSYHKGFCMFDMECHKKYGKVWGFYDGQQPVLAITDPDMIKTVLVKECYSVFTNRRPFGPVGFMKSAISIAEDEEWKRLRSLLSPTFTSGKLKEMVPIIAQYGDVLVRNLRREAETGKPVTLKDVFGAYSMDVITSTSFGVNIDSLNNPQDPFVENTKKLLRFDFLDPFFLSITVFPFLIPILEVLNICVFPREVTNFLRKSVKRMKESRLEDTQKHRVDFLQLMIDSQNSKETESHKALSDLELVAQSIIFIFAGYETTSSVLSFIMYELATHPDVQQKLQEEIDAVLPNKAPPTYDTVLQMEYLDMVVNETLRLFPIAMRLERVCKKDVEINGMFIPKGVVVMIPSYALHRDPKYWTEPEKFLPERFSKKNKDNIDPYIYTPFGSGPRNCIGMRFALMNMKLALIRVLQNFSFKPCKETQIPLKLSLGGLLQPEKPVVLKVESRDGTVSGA

As to `CC(C)(O)[C@@H]1CC[C@@](C)([C@H]2CC[C@]3(C)[C@@H]2[C@H](O)C[C@@H]2[C@@]4(C)CC[C@H](O)C(C)(C)[C@@H]4CC[C@]23C)O1` [PDQ, (20S,24S)-dammar-20,24-epoxy-3β, 12β, 25-triol], the IC50 was above 30 µM on hOAT3; 2.02 µM on CYP3A4 (HLM 0.1 mg/mL, probe midazolam 2 µM, 3 min, read-out: IC50 on CYP3A4 (Midazolam)); 6.79 µM at CYP3A4 (HLM 0.1 mg/mL, probe testosterone 40 µM, 10 min, read-out: IC50 on CYP3A4 (Testosterone)); 2.02 to 6.79 µM at CYP3A4 (HLM, midazolam and testosterone as substrates, read-out: IC50 on CYP3A4 (range over both substrates)); 16.4 µM on CYP2C8.
